Laboratory results as given in paper PMC8610590 (Journal of Virology, 2021).
Read-outs that look alike come from different tables or passages of the source.

Columns and labels:
[1] = target: ACE2: SARS-CoV-2 Spike RBD (UniProt P0DTC2+Q9BYF1); assay: ACE2: SARS-CoV-2 Spike RBD inhibitor screening assay; assay type: binding, human ACE2 / SARS-CoV-2
[2] = MTT cell viability assay, Vero-STAT1 knockout; assay type: cell-based; conditions: African green monkey
[3] = test system: pseudotyped lentiviral particles expressing Spike glycoprotein of SARS-CoV-2; assay: microbe, parasite or virus in culture; assay type: cell-based
[4] = test system: SARS-CoV-2 isolate USA-WI1/2020; assay: Antiviral activity against live SARS-CoV-2 in UNCN1T cells; assay type: cell-based; conditions: for antiviral efficacy against live SARS-CoV-2 (in words): UNCN1T cells, compared to DMSO vehicle control, data not shown
[5] = test system: SARS-CoV-2 isolate USA-WI1/2020; assay: microbe, parasite or virus in culture; assay type: cell-based
SARS-CoV-2 = assay type: cell-based
[6] = test system: SARS-CoV-2 isolate USA-WI1/2020; assay type: cell-based
[7] = Severe acute respiratory syndrome coronavirus 2, read-out: IC50, inhibition of SARS-CoV-2 replication
[8] = read-out: IC50, inhibition of SARS-CoV-2 replication

| SMILES | IC50 [1] | CC50 at 72 h [2] | pseudotype viral entry inhibition (in words) [3] | SARS-CoV-2 infection compared with vehicle controls (in words) (SARS-CoV-2) | antiviral efficacy against live SARS-CoV-2 (in words) [4] | further results |
| --- | --- | --- | --- | --- | --- | --- |
| CN1C(=O)c2ccccc2[S+]([O-])c2cc([N+](=O)[O-])ccc2S1(=O)=O (stereo not drawn) [MU-UNMC-1, 6-methyl-2-nitrodibenzo[d,g][1,6,2]dithiazocin-7(6H)-one 5,5,12-trioxide] | < 250 nM | 6.21 µM | low level of viral entry inhibition with a slight increase at higher concentrations | no significant difference | – | IC50 [4, 7]: 670 nM; IC50 [4, 8]: 1160 nM; IC50 [5, 7]: 5.35 µM; IC50 [5, 8]: 2.94 µM |
| CN(C)/C=C1\N=C(c2cccnc2Oc2ccc(Cl)cc2)OC1=O [MU-UNMC-8, (Z)-2-(2-(4-chlorophenoxy)pyridin-3-yl)-4-((dimethylamino)methylene)oxazol-5(4H)-one] | > 5000 nM | – | failed to prevent the pseudovirus entry | – | did not see any reduction in viral replication kinetics | – |
| CCn1c(SCC(=O)N2CCCc3ccccc32)nnc1-c1cccs1 [MU-UNMC-6, 1-(3,4-dihydroquinolin-1(2H)-yl)-2-((4-ethyl-5-(thiophen-2-yl)-4H-1,2,4-triazol-3-yl)thio) ethanone] | 1910 nM | – | failed to prevent the pseudovirus entry | – | did not see any reduction in viral replication kinetics | – |
| CCC(CC)COC(=O)[C@H](C)N[P@](=O)(OC[C@H]1O[C@@](C#N)(c2ccc3c(N)ncnn23)[C@H](O)[C@@H]1O)Oc1ccccc1 [RDV, remdesivir] | – | – | – | – | – | reduction in dosages in combination [6]: 2.3 fold; dose reduction index (DRI) ([6]; RDV/MU-UNMC-2 combination, UNCN1T cells, CompuSyn): 2.33 |
| OC(CNCCNc1ncccc1C(F)(F)F)Cn1ccc2ccccc21 (stereo not drawn) [MU-UNMC-7, 1-(1H-indol-1-yl)-3-((2-((3-(trifluoromethyl)pyridin-2-yl)amino)ethyl)amino)propan-2-ol] | > 5000 nM | – | failed to prevent the pseudovirus entry | – | did not see any reduction in viral replication kinetics | – |
| O=C1Nc2cc(C(F)(F)F)ccc2Oc2ccsc21 [MU-UNMC-2, 7-(trifluoromethyl) benzo[b]thieno[2,3-f][1,4]oxazepin-10(9H)-one] | – | 7.13 µM | significant and robust viral entry inhibition across a broad concentration range | no significant difference | – | IC50 ([3]; Severe acute respiratory syndrome coronavirus 2, 48 h, read-out: IC50, inhibition of entry of pseudotyped lentiviral particles): 840 nM; reduction in dosages in combination ([6]; RDV/MU-UNMC-2 combination, human bronchial epithelial cell line): 28.3 fold |
